Measurements reported in US9040673B2, “Synthesis and identification of novel RSK-specific inhibitors” (University of Virginia Patent Foundation, priority 2009, dated 2015).

Assays:
[1] = tested on: Ha-Ras transformed NIH/3T3 cells; assay: proliferation of Ha-Ras transformed NIH/3T3 cells; format: cell-based
Protocol: FIGS. 7A & 7B. SL0101-1 inhibition of cell proliferation is reversible. FIG. 7A: Ha-Ras-transformed cells were treated with vehicle or 50 μM SL0101-1. After 48 hr the medium was replaced and cells previously incubated with vehicle were maintained in vehicle. Cells that had previously been incubated with SL0101-1 were treated with either SL0101-1 or vehicle (washout). Cell viability was measured 48 hr later. FIG. 7B: Determination of siRNA to inhibit cancer cell proliferation. Duplex siRNAs to a sequence in the bluescript plasmid (Control), RSK1, RSK2 or RSK1 and RSK2 were transfected into MCF-7 cells. Medium was replaced 24 hr post-transfection and the cells incubated for an additional 48 hr prior to measuring cell viability.
(§1) The importance of MAPK to proliferation and oncogenesis is well established. However, the role that RSK plays in these processes has not been examined. […] SL0101-1 produced striking morphology changes in the transformed cells but not in the parental cell line. The vehicle control treated Ha-Ras transformed cells were elongated whereas in response to SL0101-1 the cells became much larger and flatter, appearing more like the parental cells, or like Ha-Ras transformed cells treated with U0126.
Cell Culture. […] Cell viability was measured at indicated time points using CellTiter-Glo™ assay reagent (Promega) according to manufacturer's protocol. […]

[2] = tested on: NIH/3T3 parental cell line; assay: proliferation of parental NIH/3T3 cell line; format: cell-based
Description: as §1
(§2) Cell Culture. For proliferation studies cells were seeded at 2500 to 5000 cells per well in 96 well tissue culture plates in the appropriate medium as described by American Type Culture Collection. After 24 hr, the medium was replaced with medium containing compound or vehicle as indicated. Cell viability was measured at indicated time points using CellTiter-Glo™ assay reagent (Promega) according to manufacturer's protocol. For in vivo inhibition studies, cells were seeded at 2.5×10^5 cells/well in 12 well cell culture clusters. After 24 hr, the cells were serum starved for 24 hr then incubated with compound or vehicle for 3 hr prior to a 30 min PDB stimulation. Cells were lysed as previously described (J. Biol. Chem. 273, 13317-13323 (1998)). The lysates were normalized for total protein, electrophoresed and immunoblotted. […]

[3] = tested on: p140, a RSK substrate; assay: p140 phosphorylation in LNCaP line (anti-RPM antibody); format: cell-based, human
Protocol: The ability of SL0101-1 to inhibit the proliferation of the androgen-dependent human prostate line, LNCaP was tested. […] To investigate the RSK signal transduction pathway in the LNCaP line, a phosphospecific antibody to a RSK phosphorylation motif (RPM) was produced. Only a few downstream effectors of RSK have been identified and therefore, applicants anticipated that an anti-RPM antibody would be a very effective tool for identifying novel RSK substrates in vivo. An anti-RPM antibody has previously been reported that recognizes the RSK substrate, p140, a protein of unknown function. […] All lysates were normalized to each other using an anti-Ran antibody. Ran is used for normalization based on the observations that it is a general housekeeping protein, the activity or expression levels of which are not known to vary in any disease state.

[4] = tested on: MAPK, MEK, Raf and PKC; assay: effect on upstream kinases of PDB-stimulated RSK phosphorylation in intact cells (immunoblot); format: cell-based, human
Protocol: To determine whether SL0101-1 inhibits RSK in intact cells, phosphorylation of p140, a RSK substrate of unknown function, was examined in a human breast cancer cell line, MCF-7. MCF-7 and MCF-10A cells were pre-incubated with vehicle, 50 μM U0126 or the indicated concentration of SL0101-1 for 3 hr (FIG. 8D). Cells were treated with 500 nM PDB for 30 min prior to lysis. Protein concentration of lysates was measured and lysates were electrophoresed, transferred and immunoblotted. […] Pre-incubation of cells with 100 μM SL0101-1 abrogates phorbol dibutyrate (PDB)-induced p140 phosphorylation as does 50 μM U0126, a MEK inhibitor.
as §2, with “(1998)).” for “(1998)). The lysates were normalized for total protein, electrophoresed and immunoblotted.”

[5] = tested on: mouse primary peritoneal macrophages; assay: LPS-induced iNOS expression in primary peritoneal macrophages; format: cell-based; settings: 60 μM, 1 μg/ml LPS, 24 hours
[6] = tested on: Yersinia pseudotuberculosis; format: cell-based; settings: 60 μM, 4 hours prior to infection (MOI=25)
[7] = tested on: human umbilical vein endothelial cells (HUVEC); assay: HUVEC wound migration assay; format: cell-based; settings: 60 μM, 1 hr prior to wounding; up to 20 hr
Description: In these experiments, HUVEC were cells were subcultured to confluence in 35-mm plates. […] Scratches were made in the monolayer of cells using sterile, disposable micropipette tips. Images were captured—2 hr, 10 hr, and 20 hr after wounding. By 10 hr after wounding, the vehicle-treated cells at the wound edge have migrated toward the wound. Gaps in the monolayer behind the wound edge are apparent. The SL0101-treated cells have recovered from the wounding, however they show little signs of polarization toward the wound and no involvement of the cells behind the wound edge. At 20 hr, the vehicle-treated cells have migrated into the wound yet the gaps are still present behind the wound edge. The cells at the wound edge in the SL0101-treated well appear to have increased in size to fill the wound rather than migrate into the wound and the monolayered cells behind the wound edge remain tightly packed unlike the vehicle-treated cells. Accordingly the data support the premise that RSK inhibitors are useful tools to stop endothelial cell migration.

[8] = tested on: HUVEC cells; assay: VEGF-induced capillary network formation in HUVEC cells; format: cell-based, human; settings: 60 μM, 10 ng/ml VEGF, 20 hours
Protocol: Interfering with tube formation is a characteristic common to anti-angiogenic treatments. HUVEC cells were seeded at a density of 1×10^5 cells per well in 24-well culture dishes coated in growth factor-reduced Matrigel (BD Biosciences). […] The cells were incubated at 37° C. for 20 hours. Images of the cells were captured for analysis of the capillary-like network.

[9] = tested on: CaLu-1 cells; assay: CaLu-1 wound migration assay; format: cell-based, human; settings: 60 μM, 24 hr after wounding
Protocol: CaLu-1 cells were sub-cultured to confluence in 35-mm plates. […] Scratches were made in the monolayer of cells using sterile, disposable micropipette tips. Images were captured either immediately following the wounding, 6 hr, or 24 hours after wounding. At the point of wounding, the cells at the wound edge show increased light refraction indicating damage. By 6 hr after wounding, the vehicle-treated cells at the wound edge present wide lamella (indicated by arrows) extending toward the direction of the wound. […] At 24 hr, the vehicle-treated cells have migrated into the wound and are enlarged to re-form the confluent monolayer.

With `CC(=O)O[C@@H]1[C@@H](OC(C)=O)[C@@H](O)[C@H](Oc2c(-c3ccc(O)cc3)oc3cc(O)cc(O)c3c2=O)O[C@H]1C` [SL0101, kaempferol 3-O-(3″,4″-di-O-acetyl-α-L-rhamnopyranoside)] the “growth rate of Ha-Ras transformed cells” value [1] was “decreased the growth rate”, the “reversibility of growth inhibition (washout)” value ([1]; 50 μM for 48 hr, then washout, viability 48 hr later) was “Removal of SL0101-1 resulted in growth of the transformed cells” and the “proliferation of the parental line” value [2] was “little effect on proliferation”. For the same molecule, the “phosphorylation of p140” value [3] was “decrease the phosphorylation of p140”, the “phosphorylation of RSK2” value [4] was “does not effect the phosphorylation of RSK2” and the “LPS-induced iNOS expression” value [5] was “abrogates iNOS expression”. For the same molecule, the “live bacteria extracted from treated macrophages” value [6] was “fewer live bacteria are extracted”, the “migration of HUVEC into wound” value [7] was “reduce the ability of the cells to migrate” and the capillary-like network formation [8] was “indistinguishable from those treated with SU1498”. The “migration of Calu-1 cells into wound” value [9] was “have not migrated to close the wound”.
